Here are results for 1 compound from publication PMC13184981, “Discovery and Development of a Potent LIMK2 Isoform-Specific Degrader” (ACS Chemical Biology, 2026).

For this experiment, the target named is T1, FLAG-tagged CRBN with MOLT-4 cell lysate (Homo sapiens, UniProt P53671+Q96SW2).
T1 construct: LIMK2: endogenous, MOLT-4 cell lysate
Nature of the experiment: PROXICapture pull-down proteomics. The settings on record: 5 μM PROTAC. The format is binding. The protocol: Purified FLAG-CRBN was conjugated to FLAG beads (Chromotek, cat. no. ffak) in coimmunoprecipitation buffer (50 mM Tris pH-7.5, 120 mM NaCl, 1% NP40, 0.5 mM EDTA) for 1 h at 4 °C on a rotating shaker, before addition of DMSO or 5 μM THNAN69 for 30 min at 4 °C. Subsequently, ∼ 1 mg of freshly prepared protein lysate from Molt4 cells was added to the prepared beads in IP lysate buffer (50 mM Tris pH-7.5, 120 mM NaCl, 1% NP40, 0.5 mM EDTA, protease inhibitors, phosphatase inhibitors and NEM) for 1 h at 4 °C while rotating. The beads were washed three times with IP buffer and afterward used either for Western blotting or trypsin digestion followed by LC-MS/MS analysis.
Protein-bound flag-CRBN beads were incubated with 20 μL SDC buffer (3% sodium deoxycholate in 50 mM Tris-HCl, pH 8.5) and heated for 5 min at 65 °C, and the supernatant was collected. This step was repeated one more time to get an elute of 40 μL. Further, reduction and alkylation were performed using 5 μL of 5 mM TCEP, 20 mM CAA in 50 mM Tris-HCl, pH 8.5, at 95 °C for 10 min. 500 ng of trypsin in 45 μL 50 mM Tris-HCl (pH 8.5) was added to each sample and kept for digestion at 37 °C overnight. […]
MS raw data were analyzed using FragPipe v21.1, with MSFragger v.4.0 and Philosopher v.5.1.0. […] Label-free quantification was performed using IonQuant v.1.10.27. […]

T1 sequence (Q96SW2 whole entry): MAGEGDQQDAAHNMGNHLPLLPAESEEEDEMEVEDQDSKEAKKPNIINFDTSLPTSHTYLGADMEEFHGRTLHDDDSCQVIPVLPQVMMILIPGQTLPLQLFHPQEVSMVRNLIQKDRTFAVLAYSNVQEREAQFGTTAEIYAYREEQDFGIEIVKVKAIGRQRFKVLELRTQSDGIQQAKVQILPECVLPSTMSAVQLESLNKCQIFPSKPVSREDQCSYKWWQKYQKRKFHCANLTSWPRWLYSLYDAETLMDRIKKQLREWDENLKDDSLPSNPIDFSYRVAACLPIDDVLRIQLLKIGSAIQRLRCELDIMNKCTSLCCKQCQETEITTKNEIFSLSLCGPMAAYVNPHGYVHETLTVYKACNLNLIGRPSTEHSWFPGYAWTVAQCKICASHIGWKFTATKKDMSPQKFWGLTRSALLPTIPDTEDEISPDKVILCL
T1 sequence (P53671 whole entry): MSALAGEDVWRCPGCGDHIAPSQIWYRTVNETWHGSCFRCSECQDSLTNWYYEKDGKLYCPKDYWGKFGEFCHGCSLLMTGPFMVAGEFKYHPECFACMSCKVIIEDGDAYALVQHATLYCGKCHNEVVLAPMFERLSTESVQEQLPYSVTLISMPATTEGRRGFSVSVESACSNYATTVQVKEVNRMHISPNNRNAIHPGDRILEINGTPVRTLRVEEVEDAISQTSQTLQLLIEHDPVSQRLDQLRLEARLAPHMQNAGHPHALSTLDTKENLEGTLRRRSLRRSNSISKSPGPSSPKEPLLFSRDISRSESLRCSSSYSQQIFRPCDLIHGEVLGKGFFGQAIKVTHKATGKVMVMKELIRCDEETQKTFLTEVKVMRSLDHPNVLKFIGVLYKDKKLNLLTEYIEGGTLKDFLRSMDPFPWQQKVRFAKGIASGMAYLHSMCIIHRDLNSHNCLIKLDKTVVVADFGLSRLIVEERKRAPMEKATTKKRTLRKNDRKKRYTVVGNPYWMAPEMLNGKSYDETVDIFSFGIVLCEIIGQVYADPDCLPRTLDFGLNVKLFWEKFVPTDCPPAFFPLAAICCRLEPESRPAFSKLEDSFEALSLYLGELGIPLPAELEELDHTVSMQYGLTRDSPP

For the compound `Cc1c(OCc2cn(CCCCC(=O)Nc3ncc(-c4cc(C(F)F)nn4-c4c(Cl)cccc4Cl)s3)nn2)cccc1N1CCC(=O)NC1=O` [22b], the “proteins enriched by CRBN:PROTAC pull-down” value was “selectively recruited and enriched LIMK2 but not LIMK1”.
